Results published in publication PMC3914206.

Columns and labels:
[1] = biological target: T1, panel of 442 kinases (Homo sapiens, UniProt Q6P3R8); format: binding; details: Compound Concentration 10 µM
T1 construct: purchased KINOMEscan
T1 sequence (Q6P3R8 1-708): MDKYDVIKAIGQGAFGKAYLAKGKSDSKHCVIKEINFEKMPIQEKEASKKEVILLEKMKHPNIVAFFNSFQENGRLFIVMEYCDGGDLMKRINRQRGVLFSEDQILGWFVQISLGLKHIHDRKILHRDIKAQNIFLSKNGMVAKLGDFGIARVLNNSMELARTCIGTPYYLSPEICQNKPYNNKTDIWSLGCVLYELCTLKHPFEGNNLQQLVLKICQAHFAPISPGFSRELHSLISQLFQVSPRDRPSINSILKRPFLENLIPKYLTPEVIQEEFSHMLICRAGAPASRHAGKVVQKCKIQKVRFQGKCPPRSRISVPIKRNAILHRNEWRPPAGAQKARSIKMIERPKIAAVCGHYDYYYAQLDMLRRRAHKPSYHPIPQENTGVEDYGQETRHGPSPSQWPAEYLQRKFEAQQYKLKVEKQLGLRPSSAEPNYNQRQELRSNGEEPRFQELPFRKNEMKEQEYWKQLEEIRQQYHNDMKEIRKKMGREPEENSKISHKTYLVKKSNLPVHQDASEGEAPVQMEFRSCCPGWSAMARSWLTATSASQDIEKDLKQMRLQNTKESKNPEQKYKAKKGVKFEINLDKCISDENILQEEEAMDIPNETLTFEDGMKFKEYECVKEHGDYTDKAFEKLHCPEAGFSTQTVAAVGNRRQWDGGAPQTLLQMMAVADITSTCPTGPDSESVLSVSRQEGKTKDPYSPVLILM
Excerpt: (§1) We assessed the selectivity of members of this scaffold using the KINOMEscan methodology across a near comprehensive panel of 442 kinases [[18,27]].

[2] = biological target: T2, panel of 442 kinases (Homo sapiens, UniProt Q99640); format: binding; details: Compound Concentration 10 µM
T2 construct: purchased KINOMEscan
T2 sequence (Q99640 1-499): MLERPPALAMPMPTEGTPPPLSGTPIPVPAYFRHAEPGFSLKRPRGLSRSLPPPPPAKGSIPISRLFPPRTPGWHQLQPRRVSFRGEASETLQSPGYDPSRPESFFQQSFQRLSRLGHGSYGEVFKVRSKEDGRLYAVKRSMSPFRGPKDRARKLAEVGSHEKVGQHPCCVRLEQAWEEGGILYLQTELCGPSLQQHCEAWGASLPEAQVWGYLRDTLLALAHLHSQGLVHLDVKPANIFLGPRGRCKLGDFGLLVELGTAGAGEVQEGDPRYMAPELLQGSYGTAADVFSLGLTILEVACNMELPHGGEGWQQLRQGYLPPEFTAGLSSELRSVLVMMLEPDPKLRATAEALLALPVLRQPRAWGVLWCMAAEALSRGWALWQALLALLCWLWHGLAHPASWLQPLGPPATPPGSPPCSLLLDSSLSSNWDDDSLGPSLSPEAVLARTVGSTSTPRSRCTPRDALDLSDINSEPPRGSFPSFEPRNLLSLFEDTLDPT
Excerpt: as §1

`COc1cc(C(=O)N2CCC(N3CCN(C)CC3)CC2)ccc1Nc1ncc2c(n1)N1CCc3cccc(c31)C(=O)N2C` [Compound 24] was tested, and the “KINOMEscan: NEK5” value [1] was 57 and the “KINOMEscan: PKMYT1” value [2] was 70.

For `CCOc1cc(C(=O)N2CCC(N3CCN(C)CC3)CC2)ccc1Nc1ncc2c(n1)N(C1CCCC1)c1ccccc1C(=O)N2C` [Compound 26], the “KINOMEscan: NEK5” value [1] was 100 and the “KINOMEscan: PKMYT1” value [2] was 100.

In the case of `COc1cc(C(=O)N2CCC(N3CCN(C)CC3)CC2)ccc1Nc1ncc2c(n1)N(C1CCCC1)c1ccccc1C(=O)N2C` [Compound 25, 11-cyclopentyl-2-((2-methoxy-4-(4-(4-methylpiperazin-1-yl)piperidine-1-carbonyl)phenyl)amino)-5-methyl-5H-benzo[e]pyrimido[5,4-b][1,4]diazepin-6(11H)-one], the “KINOMEscan: NEK5” value [1] is reported as 100 and the “KINOMEscan: PKMYT1” value [2] is reported as 100.

With `COc1cc(C(=O)N2CCC(N3CCN(C)CC3)CC2)ccc1Nc1ncc2c(n1)N(C)c1ccccc1C(=O)N2C` [15 (LRRK2-IN-1)] the “KINOMEscan: NEK5” value [1] was 100 and the “KINOMEscan: PKMYT1” value [2] was 80.
